# Laboratory results published in the supplement of paper PMC13207355.
# Where a name gives a salt, the structure may show the parent alone.
# How the values were obtained:
# Details in all cases: exposure time: 72 h
# [1] = tested on: FT3469 (normal neural stem cell line); assay: phenotypic distance (Euclidean, principal components) from DMSO controls (arbitrary units); higher = stronger morphological change
# [2] = tested on: E28 (patient-derived glioblastoma stem cells of classical subtype); assay: as above
# [3] = tested on: E34 (patient-derived glioblastoma stem cells of proneural subtype); assay: as above
# [4] = tested on: E31 (patient-derived glioblastoma stem cells of proneural subtype); assay: as above
# [5] = tested on: E21 (patient-derived glioblastoma stem cells of mesenchymal subtype); assay: as above
# [6] = tested on: E13 (patient-derived glioblastoma stem cells of classical subtype); assay: as above
# [7] = tested on: E57 (patient-derived glioblastoma stem cells of mesenchymal subtype); assay: as above
# [8] = tested on: FT3469; assay: surviving fraction (nuclei count normalised to DMSO); higher = more cells surviving (less toxic)
# [9] = tested on: E28; assay: as above
# [10] = tested on: E34; assay: as above
# [11] = tested on: E31; assay: as above
# [12] = tested on: E21; assay: as above
# [13] = tested on: E13; assay: as above
# [14] = tested on: E57; assay: as above
# 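Wherever phenotypic distance (Euclidean, principal components) from DMSO controls is given: cell Painting imaging in 384-well plates, CellProfiler features reduced to at least 20 principal components, Euclidean distance versus same-plate DMSO vehicle wells (0.1% v/v), median over six images per well.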
# 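Wherever surviving fraction (nuclei count normalised to DMSO) is given: nuclei counted by high-content imaging of Hoechst-stained cells in laminin-coated 384-well plates, relative to 0.1% DMSO vehicle wells, with staurosporine as cell-death control.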
smiles,measurement,setting,value
CCC(C)(C)c1ccc(CC(C)CN2C[C@@H](C)O[C@@H](C)C2)cc1 (stereo partly drawn) [Amorolfine hydrochloride],phenotypic distance,[1]; 4.1 nM,1.11
same,phenotypic distance,[1]; 12.3 nM,0.614
same,phenotypic distance,[1]; 37 nM,1.09
same,phenotypic distance,[1]; 111.1 nM,0.588
same,phenotypic distance,[1]; 333.3 nM,0.893
same,phenotypic distance,[1]; 1000 nM,0.525
same,phenotypic distance,[1]; 3000 nM,1.13
same,phenotypic distance,[2]; 4.1 nM,0.829
same,phenotypic distance,[2]; 12.3 nM,0.874
same,phenotypic distance,[2]; 37 nM,0.838
same,phenotypic distance,[2]; 111.1 nM,0.682
same,phenotypic distance,[2]; 333.3 nM,0.846
same,phenotypic distance,[2]; 1000 nM,0.746
same,phenotypic distance,[2]; 3000 nM,1.38
same,phenotypic distance,[3]; 4.1 nM,0.551
same,phenotypic distance,[3]; 12.3 nM,1.11
same,phenotypic distance,[3]; 37 nM,1.1
same,phenotypic distance,[3]; 111.1 nM,1.17
same,phenotypic distance,[3]; 333.3 nM,0.856
same,phenotypic distance,[3]; 1000 nM,0.796
same,phenotypic distance,[3]; 3000 nM,1.7
same,phenotypic distance,[4]; 4.1 nM,0.639
same,phenotypic distance,[4]; 12.3 nM,0.653
same,phenotypic distance,[4]; 37 nM,0.833
same,phenotypic distance,[4]; 111.1 nM,0.88
same,phenotypic distance,[4]; 333.3 nM,0.504
same,phenotypic distance,[4]; 1000 nM,1.35
same,phenotypic distance,[4]; 3000 nM,2.01
same,phenotypic distance,[5]; 4.1 nM,0.885
same,phenotypic distance,[5]; 12.3 nM,0.483
same,phenotypic distance,[5]; 37 nM,0.732
same,phenotypic distance,[5]; 111.1 nM,0.989
same,phenotypic distance,[5]; 333.3 nM,1.11
same,phenotypic distance,[5]; 1000 nM,1.17
same,phenotypic distance,[5]; 3000 nM,1.97
same,phenotypic distance,[6]; 4.1 nM,0.768
same,phenotypic distance,[6]; 12.3 nM,0.554
same,phenotypic distance,[6]; 37 nM,0.708
same,phenotypic distance,[6]; 111.1 nM,0.428
same,phenotypic distance,[6]; 333.3 nM,0.915
same,phenotypic distance,[6]; 1000 nM,1.17
same,phenotypic distance,[6]; 3000 nM,3.08
same,phenotypic distance,[7]; 4.1 nM,0.935
same,phenotypic distance,[7]; 12.3 nM,0.283
same,phenotypic distance,[7]; 37 nM,0.726
same,phenotypic distance,[7]; 111.1 nM,0.552
same,phenotypic distance,[7]; 333.3 nM,0.896
same,phenotypic distance,[7]; 1000 nM,1.08
same,phenotypic distance,[7]; 3000 nM,2.02
same,surviving fraction,[8]; 4.1 nM,1.01
same,surviving fraction,[8]; 12.3 nM,0.924
same,surviving fraction,[8]; 37 nM,1.24
same,surviving fraction,[8]; 111.1 nM,1.1
same,surviving fraction,[8]; 333.3 nM,1.02
same,surviving fraction,[8]; 1000 nM,0.973
same,surviving fraction,[8]; 3000 nM,1.02
same,surviving fraction,[9]; 4.1 nM,1.09
same,surviving fraction,[9]; 12.3 nM,0.852
same,surviving fraction,[9]; 37 nM,1.21
same,surviving fraction,[9]; 111.1 nM,0.914
same,surviving fraction,[9]; 333.3 nM,1.17
same,surviving fraction,[9]; 1000 nM,0.839
same,surviving fraction,[9]; 3000 nM,0.777
same,surviving fraction,[10]; 4.1 nM,0.983
same,surviving fraction,[10]; 12.3 nM,1.06
same,surviving fraction,[10]; 37 nM,0.937
same,surviving fraction,[10]; 111.1 nM,1.06
same,surviving fraction,[10]; 333.3 nM,1.09
same,surviving fraction,[10]; 1000 nM,1.14
same,surviving fraction,[10]; 3000 nM,0.815
same,surviving fraction,[11]; 4.1 nM,0.939
same,surviving fraction,[11]; 12.3 nM,0.934
same,surviving fraction,[11]; 37 nM,0.967
same,surviving fraction,[11]; 111.1 nM,0.983
same,surviving fraction,[11]; 333.3 nM,1.05
same,surviving fraction,[11]; 1000 nM,0.996
same,surviving fraction,[11]; 3000 nM,0.804
same,surviving fraction,[12]; 4.1 nM,0.94
same,surviving fraction,[12]; 12.3 nM,1.02
same,surviving fraction,[12]; 37 nM,0.982
same,surviving fraction,[12]; 111.1 nM,1.09
same,surviving fraction,[12]; 333.3 nM,1.03
same,surviving fraction,[12]; 1000 nM,1.07
same,surviving fraction,[12]; 3000 nM,0.816
same,surviving fraction,[13]; 4.1 nM,0.95
same,surviving fraction,[13]; 12.3 nM,0.95
same,surviving fraction,[13]; 37 nM,1
same,surviving fraction,[13]; 111.1 nM,0.97
same,surviving fraction,[13]; 333.3 nM,0.959
same,surviving fraction,[13]; 1000 nM,0.957
same,surviving fraction,[13]; 3000 nM,0.638
same,surviving fraction,[14]; 4.1 nM,1
same,surviving fraction,[14]; 12.3 nM,0.954
same,surviving fraction,[14]; 37 nM,1.05
same,surviving fraction,[14]; 111.1 nM,1.02
same,surviving fraction,[14]; 333.3 nM,0.957
same,surviving fraction,[14]; 1000 nM,0.983
same,surviving fraction,[14]; 3000 nM,1.02
